According to paper PMC6934184, “Selective DNA-PKcs inhibition extends the therapeutic index of localized radiotherapy and chemotherapy” (The Journal of Clinical Investigation, 2019):

Molecular target: T1, SGK (SGK1) (Homo sapiens, UniProt O00141)
T1 construct: purchased Thermo Fisher Scientific (Life Technologies) SelectScreen
Experiment: SelectScreen Z'LYTE
Format: biochemical
How it was run: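 SelectScreen broad panel; activity (Z'LYTE, Adapta) plus binding formats. ATP: Km app for CSF1R Z'LYTE; 10 for CAMK1 Adapta. Readout = % per kinase.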

T1 sequence (O00141 whole entry): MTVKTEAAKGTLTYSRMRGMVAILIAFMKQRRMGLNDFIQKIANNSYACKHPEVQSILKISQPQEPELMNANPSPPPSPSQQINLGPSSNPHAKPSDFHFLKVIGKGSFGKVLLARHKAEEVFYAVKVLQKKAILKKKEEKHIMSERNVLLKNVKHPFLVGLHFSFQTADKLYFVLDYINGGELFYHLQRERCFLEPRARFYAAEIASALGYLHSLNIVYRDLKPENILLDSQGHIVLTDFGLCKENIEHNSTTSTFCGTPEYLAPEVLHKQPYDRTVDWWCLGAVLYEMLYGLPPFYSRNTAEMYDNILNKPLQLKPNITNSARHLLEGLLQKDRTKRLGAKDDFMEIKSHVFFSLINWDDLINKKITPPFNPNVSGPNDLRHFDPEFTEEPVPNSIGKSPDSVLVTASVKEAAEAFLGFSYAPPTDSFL

CN(C(=O)CN1CCOCC1)c1ccc2sc3c(-c4cccc5c(=O)cc(N6CC7CCC(C6)O7)oc45)cccc3c2c1 [NU5455]
inhibition at 1 µM: 8.5%
